Experimental data from paper PMC10819888, “Benzimidazole-Based Derivatives as Apoptotic Antiproliferative Agents: Design, Synthesis, Docking, and Mechanistic Studies” (Molecules, 2024).

Assays:
Assay in all cases: NCI-60 one-dose assay
Type in all cases: cell-based
[1] = tested on: HOP-92; conditions: Homo sapiens, HOP-92 (Non-Small Cell Lung Cancer), read-out: Cell Inhibition Percent
Experimental: (§1) The final compounds were submitted to the National Cancer Institute, Bethesda, USA, for screening in vitro for anti-cancer. […] compounds, 4a–j, 5, and 6, were selected according to the Development Therapeutic Program (DTP) protocol. The selected compounds were evaluated for their in vitro cytotoxic activity against a panel of sixty cancer cell lines (NCI-60 cell line panel) derived from six cell lines panel of leukemia, nine cell lines of lung cancer, six cell lines of CNS cancer, seven cell lines of colon cancer, eight cell lines of melanoma, six cell lines of ovarian cancer, eight cell lines of renal cancer, two cell lines of prostate cancer, and eight cell lines of breast cancer, representing the full nine human systems as leukemia, melanoma, and cancers of the lung, colon, brain, breast, ovary, kidney, and prostate.
(§2) The selected compounds 4a–j, 5, and 6 were tested at a single concentration of 10 µM. The screening results for the selected compounds are illustrated in Table 1.
(§3) The NCI anti-cancer screening methodology has been described in detail elsewhere (http://www.dtp.nci.nih.gov, accessed on 20 February 2021). Following the Drug Evaluation Branch protocol, National Cancer Institute, Bethesda, USA, a primary anti-cancer assay was performed on approximately 60 human tumor cell line panels derived from nine neoplastic diseases.

[2] = tested on: COLO 205; conditions: Homo sapiens, COLO 205 (Colon Cancer), read-out: Cell Inhibition Percent
Experimental: as §1, §2, §3

[3] = tested on: SK-MEL-28; conditions: Homo sapiens, SK-MEL-28 (Melanoma), read-out: Cell Inhibition Percent
Experimental: as §1, §2, §3

[4] = tested on: UO-31; conditions: Homo sapiens, UO-31 (Renal Cancer), read-out: Cell Inhibition Percent
Experimental: as §1, §2, §3

[5] = tested on: U251; conditions: Homo sapiens, U-251, U251 (CNS cancer), read-out: Cell Inhibition Percent
Experimental: as §1, §2, §3

[6] = tested on: OVCAR-5; conditions: Homo sapiens, OVCAR-5 (ovarian cancer), read-out: Cell Inhibition Percent
Experimental: as §1, §2, §3

[7] = tested on: SR; conditions: Homo sapiens, SR (Leukemia), read-out: Cell Inhibition Percent
Experimental: as §1, §2, §3

[8] = tested on: UACC-257; conditions: Homo sapiens, UACC-257 (Melanoma), read-out: Cell Inhibition Percent
Experimental: as §1, §2, §3

[9] = tested on: MDA-MB-468; conditions: Homo sapiens, MDA-MB-468 (Breast Cancer), read-out: Cell Inhibition Percent
Experimental: as §1, §2, §3

[10] = tested on: IGROV1; conditions: Homo sapiens, IGROV-1, IGROV1 (ovarian cancer), read-out: Cell Inhibition Percent
Experimental: as §1, §2, §3

[11] = tested on: SF-539; conditions: Homo sapiens, SF-539 (CNS cancer), read-out: Cell Inhibition Percent
Experimental: as §1, §2, §3

[12] = tested on: RXF 393; conditions: Homo sapiens, RXF 393 (Renal Cancer), read-out: Cell Inhibition Percent
Experimental: as §1, §2, §3

[13] = tested on: RPMI-8226; conditions: Homo sapiens, RPMI-8226 (Leukemia), read-out: Cell Inhibition Percent
Experimental: as §1, §2, §3

[14] = tested on: 786-0; conditions: Homo sapiens, 786-0 (Renal Cancer), read-out: Cell Inhibition Percent
Experimental: as §1, §2, §3

[15] = tested on: K-562; conditions: Homo sapiens, K562, K-562 (Leukemia), read-out: Cell Inhibition Percent
Experimental: as §1, §2, §3

[16] = tested on: HCT-15; conditions: Homo sapiens, HCT-15 (Colon Cancer), read-out: Cell Inhibition Percent
Experimental: as §1, §2, §3

[17] = tested on: HCC-2998; conditions: Homo sapiens, HCC-2998 (Colon Cancer), read-out: Cell Inhibition Percent
Experimental: as §1, §2, §3

[18] = tested on: UACC-62; conditions: Homo sapiens, UACC-62 (Melanoma), read-out: Cell Inhibition Percent
Experimental: as §1, §2, §3

[19] = tested on: OVCAR-3; conditions: Homo sapiens, OVCAR-3 (ovarian cancer), read-out: Cell Inhibition Percent
Experimental: as §1, §2, §3

[20] = tested on: PC-3; conditions: Homo sapiens, PC-3 (Prostate Cancer), read-out: Cell Inhibition Percent
Experimental: as §1, §2, §3

[21] = tested on: SNB-75; conditions: Homo sapiens, SNB-75 (CNS cancer), read-out: Cell Inhibition Percent
Experimental: as §1, §2, §3

[22] = tested on: KM12; conditions: Homo sapiens, KM12 (Colon Cancer), read-out: Cell Inhibition Percent
Experimental: as §1, §2, §3

[23] = tested on: OVCAR-8; conditions: Homo sapiens, OVCAR-8 (ovarian cancer), read-out: Cell Inhibition Percent
Experimental: as §1, §2, §3

[24] = tested on: HCT-116; conditions: Homo sapiens, HCT-116 (Colon Cancer), read-out: Cell Inhibition Percent
Experimental: as §1, §2, §3

[25] = tested on: MDA-MB-435; conditions: Homo sapiens, MDA-MB-435 (Melanoma), read-out: Cell Inhibition Percent
Experimental: as §1, §2, §3

[26] = tested on: OVCAR-4; conditions: Homo sapiens, OVCAR-4 (ovarian cancer), read-out: Cell Inhibition Percent
Experimental: as §1, §2, §3

[27] = tested on: CCRF-CEM; conditions: Homo sapiens, CCRF-CEM (Leukemia), read-out: Cell Inhibition Percent
Experimental: as §1, §2, §3

[28] = tested on: SK-OV-3; conditions: Homo sapiens, SK-OV-3 (ovarian cancer), read-out: Cell Inhibition Percent
Experimental: as §1, §2, §3

[29] = tested on: NCI-H322M; conditions: Homo sapiens, NCI-H322M (Non-Small Cell Lung Cancer), read-out: Cell Inhibition Percent
Experimental: as §1, §2, §3

[30] = tested on: SF-295; conditions: Homo sapiens, SF-295 (CNS cancer), read-out: Cell Inhibition Percent
Experimental: as §1, §2, §3

[31] = tested on: CAKI-1; conditions: Homo sapiens, CAKI-1 (Renal Cancer), read-out: Cell Inhibition Percent
Experimental: as §1, §2, §3

CCn1c(-c2ccc3[nH]c(-c4ccc(Cl)cc4)nc3c2)n[nH]c1=S [Compound 6, 4-ethyl-5-(2-(4-chlorophenyl)-1H-benzimidazol-5-yl)-2,4-dihydro-3H-1,2,4triazole-3-thione]
inhibition at 10 µM [1]: 0.32%
inhibition at 10 µM [2]: 0%
inhibition at 10 µM [3]: 0%
inhibition at 10 µM [4]: 16.8%
inhibition at 10 µM [5]: 0%
inhibition at 10 µM [6]: 0%
inhibition at 10 µM [7]: 17.5%
inhibition at 10 µM [8]: 0%
inhibition at 10 µM [9]: 0%
inhibition at 10 µM [10]: 0.16%
inhibition at 10 µM [11]: 3.69%
inhibition at 10 µM [12]: 13.9%
inhibition at 10 µM [13]: 0.68%
inhibition at 10 µM [14]: 0%
inhibition at 10 µM [15]: 1.43%
inhibition at 10 µM [16]: 1.62%
inhibition at 10 µM [17]: 0%
inhibition at 10 µM [18]: 1.04%
inhibition at 10 µM [19]: 0%
inhibition at 10 µM [20]: 7.76%
inhibition at 10 µM [21]: 3.91%
inhibition at 10 µM [22]: 0%
inhibition at 10 µM [23]: 0%
inhibition at 10 µM [24]: 0%
inhibition at 10 µM [25]: 0%
inhibition at 10 µM [26]: 0.6%
inhibition at 10 µM [27]: 0%
inhibition at 10 µM [28]: 0%
inhibition at 10 µM [29]: 0%
inhibition at 10 µM [30]: 0.56%
inhibition at 10 µM [31]: 7.78%
